Test results published in patent US9981897B2, “Ethers of bis(hydroxymethyl)cyclohexanes” (BASF SE, priority 2011, dated 2018).

What was measured:
[1] = dissolution / solvent properties for ingredients of fragrance-comprising preparations; type: physicochemical; conditions: for customary ingredients in fragrance-comprising preparations
Text: The term “exceptional dissolution properties” refers to the solubility and also the solubilization in the perfumery application, i.e. both in the perfume oil itself, and also in the application matrix, such as soaps, creams, deodorants and others.
“Exceptional” dissolution properties are present for example if virtually all customary substances which can be used in such formulations are soluble in the solvent. “Good” dissolution properties are present if virtually all important substances which are used in such formulations are soluble in this solvent. “Moderate” dissolution properties are present if only a small fraction of the important substances is soluble or dispersible. Such substances, their importance and also the testing of the solubility in solvents are known to the person skilled in the art.

[2] = stability of the ether groups; type: physicochemical

CCOC[C@H]1CC[C@H](COCC)CC1 [Compound I-trans, Trans-1,4-Cyclohexanedimethanol Diethyl Ether]
dissolution properties [1]: exceptional

CCOCC1CCC(COCC)CC1 (stereo not drawn) [Compound I, cyclohexanedimethanol diethyl ether]
stability of the ether groups [2]: very high
toxicological properties (toxicological assessment): toxicologically acceptable
